Measurements as given in patent publication US20250215030A1, “STAT MODULATORS AND USES THEREOF” (Recludix Pharma, Inc., priority 2022, published 2025).
Where two headings read alike, the source gives them in different places.

Molecular target: T1, pSTAT3 (pY705-STAT3) (Homo sapiens, UniProt P40763)
T1 construct: host or cells: cryopreserved PBMC
Experiment: MSD-pSTAT-PBMC Assay (pSTAT3, IL-6 stimulated)
Type: cell-based
Procedure, shortened: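 Phospho-STAT levels captured on anti-STAT3 or anti-STAT6 plates and detected with anti-pY705 or anti-pY641 antibodies (MSD read-out). Cryopreserved human PBMCs received compound for 3 h before a 10 min pulse of IL-6 (10 ng/mL, STAT3) or IL-4 (1 ng/mL, STAT6). IC50 fitted after unstimulated-background subtraction and DMSO normalization.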

[1] = PBMC, compound 3 hrs, then 10 ng/mL IL-6 for 10 min, MSD pY705-STAT3, read-out: pSTAT3

T1 sequence (P40763 whole entry): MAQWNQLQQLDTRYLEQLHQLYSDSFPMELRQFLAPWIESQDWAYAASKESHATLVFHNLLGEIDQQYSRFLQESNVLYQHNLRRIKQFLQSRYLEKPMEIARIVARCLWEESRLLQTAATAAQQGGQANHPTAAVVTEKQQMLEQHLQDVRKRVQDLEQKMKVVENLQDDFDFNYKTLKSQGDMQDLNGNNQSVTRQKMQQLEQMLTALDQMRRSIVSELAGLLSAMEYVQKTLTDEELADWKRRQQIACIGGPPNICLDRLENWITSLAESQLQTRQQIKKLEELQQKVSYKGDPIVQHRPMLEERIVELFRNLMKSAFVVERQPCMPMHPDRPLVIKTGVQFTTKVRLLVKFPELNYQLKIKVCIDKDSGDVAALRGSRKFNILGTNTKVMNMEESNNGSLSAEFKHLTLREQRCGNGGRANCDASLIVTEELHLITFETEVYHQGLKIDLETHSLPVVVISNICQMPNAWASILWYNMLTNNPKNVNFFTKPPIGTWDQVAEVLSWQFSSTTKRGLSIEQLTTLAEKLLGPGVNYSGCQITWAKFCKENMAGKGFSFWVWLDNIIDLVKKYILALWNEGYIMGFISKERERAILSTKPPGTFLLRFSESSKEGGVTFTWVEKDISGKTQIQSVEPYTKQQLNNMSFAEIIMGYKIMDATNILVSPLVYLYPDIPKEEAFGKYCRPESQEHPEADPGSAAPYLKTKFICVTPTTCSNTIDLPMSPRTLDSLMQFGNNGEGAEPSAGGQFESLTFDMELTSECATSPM

SMILES | IC50 [1] [nM] | IC50 [nM]
CCCOC(=O)[C@H](C)NP(=O)(Oc1ccccc1)C(F)c1ccc2sc(C(=O)N[C@H]3C[C@@H]4C[C@@H]4C[C@H]4CC[C@@H](C(=O)N5CC(c6ncco6)C5)N4C3=O)cc2c1 (stereo partly drawn) [Compound 323, propyl ((fluoro(2-(((3S,6S,7aS,8aR,9aR)-3-(3-(oxazol-2-yl)azetidine-1-carbonyl)-5-oxodecahydro-1H-cyclopropa[d]pyrrolo[1,2-a]azocin-6-yl)carbmaoyl)benzo[b]thiophen-5-yl)methyl)(phenoxy)phosphoryl)-L-alaninate] | < 100 | 
CCCOC(=O)[C@H](C)NP(=O)(Oc1ccccc1)C(F)c1ccc2sc(C(=O)N[C@H]3C[C@@H]4C[C@@H]4C[C@H]4CC[C@@H](C(=O)N5CC(c6ncc(C)o6)C5)N4C3=O)cc2c1 (stereo partly drawn) [Compound 325, propyl ((fluoro(2-(((3S,6S,7aS,8aR,9aR)-3-(3-(5-methyloxazol-2-yl)azetidine-1-carbonyl)-5-oxodecahydro-1H-cyclopropa[d]pyrrolo[1,2-a]azocin-6-yl)carbamoyl)benzo[b]thiophen-5-yl)methyl)(phenoxy)phosphoryl)-L-alaninate] | 100 to 1000 | 
CCOC(=O)[C@H](C)NP(=O)(OCC(F)(F)F)C(F)c1ccc2sc(C(=O)N[C@H]3C[C@@H]4C[C@@H]4C[C@H]4CC[C@@H](C(=O)N5CC(c6cnccc6C)C5)N4C3=O)cc2c1 (stereo partly drawn) [Compound 329, ethyl ((fluoro(2-(((3S,6S,7aS,8aR,9aR)-3-(3-(4-methylpyridin-3-yl)azetidine-1-carbonyl)-5-oxodecahydro-1H-cyclopropa[d]pyrrolo[1,2-a]azicin-6-yl)carbamoyl)benzo[b]thiophen-5-yl)methyl)(2,2,2-trifluoroethoxy)phosphoryl)-L-alaninate] | < 100 | 
CCCOC(=O)[C@H](C)NP(=O)(Oc1ccccc1)C(F)c1ccc2sc(C(=O)N[C@H]3C[C@H]4C[C@H]4C[C@H]4CC[C@@H](C(=O)N5CC(c6nncn6C)C5)N4C3=O)cc2c1 (stereo partly drawn) [Compound 332, propyl ((fluoro(2-(((3S,6S,7aR,8aS,9aR)-3-(3-(4-methyl-4H-1,2,4-triazol-3-yl)azetidine-1-carbonyl)-5-oxodecahydro-1H-cyclopropa[d]pyrrolo[1,2-a]azocin-6-yl)carbamoyl)benzo[b]thiophen-5-yl)methyl)(phenoxy)phosphoryl)-L-alaninate] | > 3000 | 
CCCOC(=O)[C@H](C)NP(=O)(Oc1ccccc1)C(F)c1ccc2sc(C(=O)N[C@H]3C[C@H]4C[C@H]4C[C@H]4CC[C@@H](C(=O)N5CC(c6ncccn6)C5)N4C3=O)cc2c1 (stereo partly drawn) [Compound 338, propyl ((fluoro(2-(((3S,6S,7aR,8aS,9aR)-5-oxo-3-(3-(pyrimidin-2-yl)azetidine-1-carbonyl)decahydro-1H-cyclopropa[d]pyrrolo[1,2-a]azocin-6-yl)carbamoyl)benzo[b]thiophen-5-yl)methyl)(phenoxy)phosphoryl)-L-alaninate] | < 100 | 
CCCOC(=O)[C@H](C)NP(=O)(Oc1ccccc1)C(F)c1ccc2sc(C(=O)N[C@H]3C[C@@H]4C[C@@H]4C[C@H]4CC[C@@H](C(=O)N5CC(c6cc(C)on6)C5)N4C3=O)cc2c1 (stereo partly drawn) [Compound 359, propyl ((fluoro(2-(((3S,6S,7aS,8aR,9aR)-3-(3-(5-methylisoxazol-3-yl)azetidine-1-carbonyl)-5-oxodecahydro-1H-cyclopropa[d]pyrrolo[1,2-a]azocin-6-yl)carbamoyl)benzo[b]thiophen-5-yl)methyl)(phenoxy)phosphoryl)-L-alaninate] | < 100 | 
CCCOC(=O)[C@H](C)NP(=O)(Oc1ccccc1)C(F)c1ccc2sc(C(=O)N[C@H]3C[C@@H]4C[C@@H]4C[C@H]4CC[C@@H](C(=O)N5CC(c6nc(C)no6)C5)N4C3=O)cc2c1 (stereo partly drawn) [Compound 360, propyl ((fluoro(2-(((3S,6S,7aS,8aR,9aR)-3-(3-(3-methyl-1,2,4-oxadiazol-5-yl)azetidine-1-carbonyl)-5-oxodecahydro-1H-cyclopropa[d]pyrrolo[1,2-a]azocin-6-yl)carbamoyl)benzo[b]thiophen-5-yl)methyl)(phenoxy)phosphoryl)-L-alaninate] | < 100 | 
CCCOC(=O)[C@H](C)NP(=O)(Oc1ccccc1)C(F)c1ccc2sc(C(=O)N[C@H]3C[C@@H]4C[C@@H]4C[C@H]4CC[C@@H](C(=O)N5CC(c6cc(C)no6)C5)N4C3=O)cc2c1 (stereo partly drawn) [Compound 361, propyl ((fluoro(2-(((3S,6S,7aS,8aR,9aR)-3-(3-(3-methylisoxazol-5-yl)azetidine-1-carbonyl)-5-oxodecahydro-1H-cyclopropa[d]pyrrolo[1,2-a]azocin-6-yl)carbamoyl)benzo[b]thiophen-5-yl)methyl)(phenoxy)phosphoryl)-L-alaninate] | < 100 | 
CCCOC(=O)[C@H](C)NP(=O)(Oc1ccccc1)C(F)c1ccc2sc(C(=O)N[C@H]3C[C@@H]4C[C@@H]4C[C@H]4CC[C@@H](C(=O)N5CC(c6cc(OC)no6)C5)N4C3=O)cc2c1 (stereo partly drawn) [Compound 362, propyl ((fluoro(2-(((3S,6S,7aS,8aR,9aR)-3-(3-(3-methoxyisoxazol-5-yl)azetidine-1-carbonyl)-5-oxodecahydro-1H-cyclopropa[d]pyrrolo[1,2-a]azocin-6-yl)carbamoyl)benzo[b]thiophen-5-yl)methyl)(phenoxy)phosphoryl)-L-alaninate] | < 100 | 
CCCOC(=O)[C@H](C)NP(=O)(Oc1ccccc1)C(F)c1ccc2sc(C(=O)N[C@H]3C[C@@H]4C[C@@H]4C[C@H]4CC[C@@H](C(=O)N5CC(CS(C)(=O)=O)C5)N4C3=O)cc2c1 (stereo partly drawn) [Compound 363, propyl ((fluoro(2-(((3S,6S,7aS,8aR,9aR)-3-(3-((methylsulfonyl)methyl)azetidine-1-carbonyl)-5-oxodecahydro-1H-cyclopropa[d]pyrrolo[1,2-a]azocin-6-yl)carbamoyl)benzo[b]thiophen-5-yl)methyl)(phenoxy)phosphoryl)-L-alaninate] | 100 to 1000 | 
Cc1ccncc1C1CN(C(=O)[C@@H]2CC[C@@H]3C[C@H]4C[C@H]4C[C@H](NC(=O)c4cc5cc(C(F)P(=O)(N[C@@H](C)C(=O)OCC(C)C)Oc6ccccc6)ccc5s4)C(=O)N32)C1 (stereo partly drawn) [Compound 374, isobutyl ((fluoro(2-(((3S,6S,7aS,8aR,9aR)-3-(3-(4-methylpyridin-3-yl)azetidine-1-carbonyl)-5-oxodecahydro-1H-cyclopropa[d]pyrrolo[1,2-a]azocin-6-yl)carbamoyl)benzo[b]thiophen-5-yl)methyl)(phenoxy)phosphoryl)-L-alaninate] | < 100 | 
CCCOC(=O)[C@H](C)NP(=O)(Oc1ccccc1)C(F)c1ccc2sc(C(=O)N[C@H]3C[C@@H]4C[C@@H]4C[C@H]4CC[C@@H](C(=O)N5CC(c6cc(C(F)F)on6)C5)N4C3=O)cc2c1 (stereo partly drawn) [Compound 381, propyl(((2-(((3S,6S,7aS,8aR,9aR)-3-(3-(5-(difluoromethyl)isoxazol-3-yl)azetidine-1-carbonyl)-5-oxodecahydro-1H-cyclopropa[d]pyrrolo[1,2-a]azocin-6-yl)carbamoyl)benzo[b]thiophen-5-yl)fluoromethyl)(phenoxy)phosphoryl)-L-alaninate] |  | < 100
CCCOC(=O)[C@H](C)NP(=O)(Oc1ccccc1)C(F)c1ccc2sc(C(=O)N[C@H]3C[C@@H]4C[C@@H]4C[C@H]4CC[C@@H](C(=O)N[C@H]5CN(C(N)=O)C[C@@H]5F)N4C3=O)cc2c1 (stereo partly drawn) [Compound 382, propyl(((2-(((3S,6S,7aS,8aR,9aR)-3-(((3S,4S)-1-carbamoyl-4-fluoropyrrolidin-3-yl)carbamoyl)-5-oxodecahydro-1H-cyclopropa[d]pyrrolo[1,2-a]azocin-6-yl)carbamoyl)benzo[b]thiophen-5-yl)fluoromethyl)(phenoxy)phosphoryl)-L-alaninate] |  | 100 to 1000
CCCOC(=O)[C@H](C)NP(=O)(Cc1ccc2sc(C(=O)N[C@H]3C[C@H]4C[C@H]4C[C@H]4CC[C@@H](C(=O)N5CC(c6cnccc6CC)C5)N4C3=O)cc2c1)Oc1ccccc1 (stereo partly drawn) [Compound 392, propyl(((2-(((3S,6S,7aR,8aS,9aR)-3-(3-(4-ethylpyridin-3-yl)azetidine-1-carbonyl)-5-oxodecahydro-1H-cyclopropa[d]pyrrolo[1,2-a]azocin-6-yl)carbamoyl)benzo[b]thiophen-5-yl)methyl)(phenoxy)phosphoryl)-L-alaninate] |  | < 100
CCCOC(=O)[C@H](C)N[P@](=O)(Oc1ccccc1)[C@H](F)c1ccc2sc(C(=O)N[C@H]3C[C@H]4C[C@H]4C[C@H]4CC[C@@H](C(=O)N5CC(c6cnccc6N6CCOCC6)C5)N4C3=O)cc2c1 [Compound 395, propyl((R)-((S)-fluoro(2-(((3S,6S,7aR,8aS,9aR)-3-(3-(4-morpholinopyridin-3-yl)azetidine-1-carbonyl)-5-oxodecahydro-1H-cyclopropa[d]pyrrolo[1,2-a]azocin-6-yl)carbamoyl)benzo[b]thiophen-5-yl)methyl)(phenoxy)phosphoryl)-L-alaninate] |  | < 100
CCCOC(=O)[C@H](C)N[P@@](=O)(Oc1ccccc1)[C@H](F)c1ccc2sc(C(=O)N[C@H]3C[C@H]4C[C@H]4C[C@H]4CC[C@@H](C(=O)N5CC(c6cnccc6N6CCOCC6)C5)N4C3=O)cc2c1 [Compound 396, propyl((S)-((S)-fluoro(2-(((3S,6S,7aR,8aS,9aR)-3-(3-(4-morpholinopyridin-3-yl)azetidine-1-carbonyl)-5-oxodecahydro-1H-cyclopropa[d]pyrrolo[1,2-a]azocin-6-yl)carbamoyl)benzo[b]thiophen-5-yl)methyl)(phenoxy)phosphoryl)-L-alaninate] |  | < 100
CCCOC(=O)[C@H](C)NP(=O)(Cc1ccc2sc(C(=O)N[C@H]3C[C@H]4C[C@H]4C[C@H]4CC[C@@H](C(=O)N5CC(c6cnccc6N(C)C)C5)N4C3=O)cc2c1)Oc1ccccc1 (stereo partly drawn) [Compound 397, propyl(((2-(((3S,6S,7aR,8aS,9aR)-3-(3-(4-(dimethylamino)pyridin-3-yl)azetidine-1-carbonyl)-5-oxodecahydro-1H-cyclopropa[d]pyrrolo[1,2-a]azocin-6-yl)carbamoyl)benzo[b]thiophen-5-yl)methyl)(phenoxy)phosphoryl)-L-alaninate] |  | < 100
